Here are results for 8 compounds from patent US8507683B2, “Compounds for the treatment of hepatitis C” (Bristol-Myers Squibb Company, priority 2010, dated 2013).

Data set [1] relates to genotype 1b HCV replicon in Huh-7 cells. The data set can be described thus: HCV replicon luciferase assay, genotype 1b. The class given is cell-based. As to conditions: Hepatitis C virus, 1b genotype replicon. As to the method:
(§1) Cell Lines. The cell lines used to evaluate compounds consist of a human hepatocyte derived cell line (Huh-7) that constitutively expresses a genotype 1a or 1b HCV replicon containing a Renilla luciferase reporter gene. These cells were maintained in Dulbecco's modified Eagle medium (DMEM) containing 10% FBS, 100 U/mL penicillin/streptomycin and 1.0 mg/mL G418.
(§2) HCV Replicon Luciferase Assay. To evaluate compound efficacy, HCV replicon cells were seeded in 96-well plates in DMEM containing 10% FBS at a cell density of 10^4/well. Following incubation at 37° C. overnight, compounds serially diluted in DMSO were added to the cell plates. Alternatively, titrated compounds were transferred to sterile 384-well tissue-culture treated plates and the plates seeded with 50 μL of cells at a density of 2.4×10^3 cells/well in DMEM containing 4% FCS (final DMSO concentration at 0.5%). After 3 days incubation at 37° C., cells were analyzed for Renilla Luciferase activity using the EnduRen substrate (Promega cat #E6485) according to the manufacturer's directions. Briefly, the EnduRen substrate was diluted in DMEM and then added to the plates to a final concentration of 7.5 μM. The plates were incubated for at least 1 h at 37° C. then read on a TopCount NXT Microplate Scintillation and Luminescence Counter (Packard) or Viewlux Imager (PerkinElmer) using a luminescence program. The 50% effective concentration (EC50) was calculated using the exponential form of the median effect equation where EC50=100−[(δFinh/δFcon)×100].
Background: A replicon is a self-replicating genome or part of one, used to study replication in cells.

In data set [2] the target is HCV NS5B RdRp genotype 1b (Hepatitis C virus genotype 1b (isolate Con1) (HCV), UniProt Q9WMX2). The data set is described as follows: HCV NS5B RdRp enzyme assay. The class given is biochemical. As to the method:
HCV NS5B RdRp Cloning, Expression, and Purification. The cDNA encoding the NS5B protein of HCV, genotype 1b, was cloned into the pET21a expression vector. The protein was expressed with an 18 amino acid C-terminal truncation to enhance the solubility. The E. coli competent cell line BL21(DE3) was used for expression of the protein. Cultures were grown at 37° C. for ˜4 hours until the cultures reached an optical density of 2.0 at 600 nm. The cultures were cooled to 20° C. and induced with 1 mM IPTG. Fresh ampicillin was added to a final concentration of 50 μg/mL and the cells were grown overnight at 20° C.
Cell pellets (3 L) were lysed for purification to yield 15-24 mgs of purified NS5B. The lysis buffer consisted of 20 mM Tris-HCl, pH 7.4, 500 mM NaCl, 0.5% triton X-100, 1 mM DTT, 1 mM EDTA, 20% glycerol, 0.5 mg/ml lysozyme, 10 mM MgCl2, 15 ug/ml deoxyribonuclease I, and Complete TM protease inhibitor tablets (Roche). After addition of the lysis buffer, frozen cell pellets were resuspended using a tissue homogenizer. To reduce the viscosity of the sample, aliquots of the lysate were sonicated on ice using a microtip attached to a Branson sonicator. The sonicated lysate was centrifuged at 100,000×g for 30 minutes at 4° C. and filtered through a 0.2 μm filter unit (Corning).
The protein was purified using two sequential chromatography steps: Heparin sepharose CL-6B and polyU sepharose 4B. The chromatography buffers were identical to the lysis buffer but contained no lysozyme, deoxyribonuclease I, MgCl2 or protease inhibitor and the NaCl concentration of the buffer was adjusted according to the requirements for charging the protein onto the column. Each column was eluted with a NaCl gradient which varied in length from 5-50 column volumes depending on the column type. After the final chromatography step, the resulting purity of the enzyme is >90% based on SDS-PAGE analysis. The enzyme was aliquoted and stored at −80° C.
Standard HCV NS5B RdRp Enzyme Assay. HCV RdRp genotype 1b assays were run in a final volume of 60 μl in 96 well plates (Costar 3912) . The assay buffer is composed of 20 mM Hepes, pH 7.5, 2.5 mM KCl, 2.5 mM MgCl2, 1 mM DTT, 1.6 U RNAse inhibitor (Promega N2515), 0.1 mg/ml BSA (Promega R3961), and 2% glycerol. All compounds were serially diluted (3-fold) in DMSO and diluted further in water such that the final concentration of DMSO in the assay was 2%. HCV RdRp genotype 1b enzyme was used at a final concentration of 28 nM. A polyA template was used at 6 nM, and a biotinylated oligo-dT12 primer was used at 180 nM final concentration. Template was obtained commercially (Amersham 27-4110). Biotinylated primer was prepared by Sigma Genosys. ^3H-UTP was used at 0.6 μCi (0.29 μM total UTP). Reactions were initiated by the addition of enzyme, incubated at 30° C. for 60 min, and stopped by adding 25 μL of 50 mM EDTA containing SPA beads (4 μg/μL, Amersham RPNQ 0007). Plates were read on a Packard Top Count NXT after >1 hr incubation at room temperature.
Modified HCV NS5B RdRp Enzyme Assay. An on-bead solid phase homogeneous assay was also used to assess NS5B inhibitors (WangY-K, Rigat K, Roberts S, and Gao M (2006) Anal Biochem, 359: 106-111). The assay is a modification of the standard assay described above and was used in a 96-well or a 384-well format. […]

For data set [3], the system named is HCV. As to conditions: cited from earlier work.
For data set [4], the system named is genotype 1a HCV replicon in Huh-7 cells. The data set is described as follows: HCV replicon luciferase assay, genotype 1a. The class given is cell-based. To be noted: Hepatitis C virus, 1a genotype used for replicon data. The procedure: as §1
as §2, with “The 50% effective concentration (EC50) was calculated using the exponential form of the median effect equation where EC50=100−[(δFinh/δFcon)×100].” left out

Chain of HCV NS5B RdRp genotype 1b (Q9WMX2 2420-2992): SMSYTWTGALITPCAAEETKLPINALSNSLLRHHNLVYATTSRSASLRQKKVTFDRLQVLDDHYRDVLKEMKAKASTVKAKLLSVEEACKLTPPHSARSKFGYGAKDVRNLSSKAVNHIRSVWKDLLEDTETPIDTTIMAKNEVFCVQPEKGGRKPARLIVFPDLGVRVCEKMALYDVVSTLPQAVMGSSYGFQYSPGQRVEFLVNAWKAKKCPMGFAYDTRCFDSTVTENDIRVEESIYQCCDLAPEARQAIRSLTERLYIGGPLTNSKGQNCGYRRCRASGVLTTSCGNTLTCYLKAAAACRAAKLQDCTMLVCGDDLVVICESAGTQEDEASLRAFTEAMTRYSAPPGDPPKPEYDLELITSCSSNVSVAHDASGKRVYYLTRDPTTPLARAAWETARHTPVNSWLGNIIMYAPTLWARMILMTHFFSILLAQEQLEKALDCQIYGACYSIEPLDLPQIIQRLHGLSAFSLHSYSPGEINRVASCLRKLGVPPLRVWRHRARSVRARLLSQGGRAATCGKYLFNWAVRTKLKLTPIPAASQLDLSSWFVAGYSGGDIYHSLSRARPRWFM

Consider `CNC(=O)c1c(-c2ccc(F)cc2)oc2ccc(-c3cc(C(=O)NC4(c5ccccn5)COC4)cc(F)c3C)c(F)c12` [4-fluoro-5-(3-fluoro-2-methyl-5-(3-(pyridin-2-yl)oxetan-3-ylcarbamoyl)phenyl)-2-(4-fluorophenyl)-N-methylbenzofuran-3-carboxamide], for which a half-maximal effect in data set [1] (EC50) was put at 6 nM. The IC50 (usually the concentration that gives 50% inhibition) in data set [2] was 16 nM.
On to `CNC(=O)c1c(-c2ccc(F)cc2)oc2ccc(-c3cc(C(=O)NC4(c5ccccn5)COC4)c(OC)cc3C)c(F)c12`, for which the midpoint of the response in data set [1], the EC50, lay at 8 nM. In data set [2], this compound yielded an IC50 of 17 nM.
As for `CNC(=O)c1c(-c2ccc(F)cc2)oc2ccc(-c3cc(C(=O)NC4(c5ccccc5)COC4)ccc3C)c(F)c12`, a half-maximal effect in data set [1] (EC50) was put at 4 nM. The compound also showed an IC50 in data set [2] of 57 nM.
Regarding `CNC(=O)c1c(-c2ccc(F)cc2)oc2ccc(-c3cc(C(=O)NC4(c5ncccn5)COC4)cc(F)c3C)c(F)c12` [4-fluoro-5-(3-fluoro-2-methyl-5-(3-(pyrimidin-2-yl)oxetan-3-ylcarbamoyl)phenyl)-2-(4-fluorophenyl)-N-methylbenzofuran-3-carboxamide], the half-maximal effective concentration (EC50) (in general, the midpoint of the concentration-response curve) in data set [1] amounted to 12 nM. For the same compound, the half-inhibitory concentration (IC50) in data set [2] came to 6 nM.
With `CNC(=O)c1c(-c2ccc(F)cc2)oc2ccc(-c3cc(C(=O)NC4(c5ncccn5)COC4)c(OC)cc3C)c(F)c12` [4-fluoro-2-(4-fluorophenyl)-5-(4-methoxy-2-methyl-5-(3-(pyrimidin-2-yl)oxetan-3-ylcarbamoyl)phenyl)-N-methylbenzofuran-3-carboxamide], the EC50 in data set [1] stood at 12 nM. The same compound registered an IC50 in data set [2] of 22 nM.
As for `CNC(=O)c1c(-c2ccc(F)cc2)oc2ccc(-c3cc(C(=O)NC4(c5ncccn5)COC4)ccc3C)c(F)c12` [4-fluoro-2-(4-fluorophenyl)-N-methyl-5-(2-methyl-5-(3-(pyrimidin-2-yl)oxetan-3-ylcarbamoyl)phenyl)benzofuran-3-carboxamide], in data set [1], it took 15 nM to reach a half-maximal effect (EC50). This compound displayed a half-inhibitory concentration (IC50) in data set [2] of 10 nM.
Take `CNC(=O)c1c(-c2ccc(F)cc2)oc2cc(N(CCO)S(C)(=O)=O)c(C3CC3)cc12` [HCV-796]: in data set [3] (extended dosing of the combination regimens with interferon and ribavirin), the hepatic toxicity result is given as “hepatic toxicity observed”. Also, the “HCV RNA levels in patients” value in data set [3] (patients, single agent) is given as “showed an ability to reduce HCV RNA levels in patients”.
Turning to `CNC(=O)c1c(-c2ccc(F)cc2)oc2ccc(-c3cc(C(=O)NC4(c5ccccn5)COC4)ccc3C)c(F)c12` [4-fluoro-2-(4-fluorophenyl)-N-methyl-5-(2-methyl-5-(3-(pyridin-2-yl)oxetan-3-ylcarbamoyl)phenyl)benzofuran-3-carboxamide], in data set [2], 24 nM corresponded to half-maximal inhibition (IC50). In data set [4], this compound showed an EC50 of 24 nM.
